System: human (tumor) Hif2α (EPAS1) mRNA
Assay: Hif2α knockdown in orthotopic RCC tumor bearing mice, single injection of RNAi trigger-delivery polymer conjugate, RT-qPCR (Table 7)
Type: in vivo
Conditions: RNAi trigger 50 μg, polymer 064 125 μg; single tail vein injection; relative to isotonic glucose
Procedure, shortened: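 Female athymic nude mice carried orthotopic A498-SEAP ccRCC kidney tumours, used 5–6 weeks after implantation. They received one tail-vein injection of RGD-targeted Hif2α RNAi trigger–polymer conjugate or isotonic glucose. Tumour Hif2α mRNA was measured by TaqMan RT-qPCR normalised to CycA (ΔΔCT) and expressed relative to glucose-treated mice.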

Substance | Relative Expression day 4 (Hif2α mRNA in kidney tumor)
AD03265 (antisense UUUCAUGAAAUCGUUACGUUG; sense UAUACGUAACGAUUUCAUGAAAT; Hif2alpha RNAi agent antisense strand; modified_base 2,4,6,8,14 /mod_base = “2′-deoxy-2′-fluoro corresponding nucleoside”; modified_base 1,3,5,7,9,10,11,12,13,15,16,17,18,19,20,21 /mod_base = “2′-O-methyl corresponding nucleoside”; modified_base 2,3,20,21 /mod_base = “5′-phosphorothioate corresponding nucleotide”; Hif2alpha RNAi agent sense strand; modified_base 2 modified base = “2′-hydroxy corresponding nucleoside”; modified_base 10,11,12 /mod_base = “2′-deoxy-2′-fluoro corresponding nucleoside”; modified_base 1,3,4,5,6,7,8,9,13,14,15,16,17,18,19,20,21,22 /mod_base = “2′-O-methyl correspon) | 0.294
AD03266 (antisense UUUCAUGAAAUCGUUACGUUG; sense ACGUAACGAUUUCAUGAAAT; Hif2alpha RNAi agent antisense strand; modified_base 2,4,6,8,14 /mod_base = “2′-deoxy-2′-fluoro corresponding nucleoside”; modified_base 1,3,5,7,9,10,11,12,13,15,16,17,18,19,20,21 /mod_base = “2′-O-methyl corresponding nucleoside”; modified_base 2,3,20,21 /mod_base = “5′-phosphorothioate corresponding nucleotide”; Hif2alpha RNAi agent sense strand; modified_base 7,8,9 /mod_base = “2′-deoxy-2′-fluoro corresponding nucleoside”; modified_base 1,2,3,4,5,6,10,11,12,13,14,15,16,17,18,19 /mod_base = “2′-O-methyl corresponding nucleoside”; modified_base 20 /mod_base = “3′-3′-linked nucleotide”; modi) | 0.408

Source: patent US9976141B2, “Compositions and methods for inhibiting gene expression of Hif2alpha” (Arrowhead Madison Inc., priority 2015, dated 2018)
